{"source": "patent US20020146829A1", "about": "“Neutral and anionic colloidal particles for gene delivery” (Aventis Pharmaceuticals Products Inc., priority 2000, published 2002)", "origin": "cited, not measured here", "target": "T1, folate receptor on M109 cells (Mus musculus, UniProt P35846)", "T1 construct": "endogenous in cells; host or cells: M109 cells", "T1 sequence (P35846 25-232)": "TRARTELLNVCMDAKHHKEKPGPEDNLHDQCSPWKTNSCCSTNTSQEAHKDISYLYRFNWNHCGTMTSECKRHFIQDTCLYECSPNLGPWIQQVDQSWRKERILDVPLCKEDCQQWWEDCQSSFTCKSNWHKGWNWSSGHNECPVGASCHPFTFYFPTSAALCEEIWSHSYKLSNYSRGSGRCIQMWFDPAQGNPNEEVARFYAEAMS"}
{"substance": "distearyl-PEG400-Folate [RPR258018]", "values": [{"measurement": "binding to folate receptor", "value": "specifically bind"}]}
